From ChEMBL document CHEMBL4321825, “Discovery of a Series of 5-Azaquinazolines as Orally Efficacious IRAK4 Inhibitors Targeting MyD88L265P Mutant Diffuse Large B Cell Lymphoma” (J Med Chem, 2019)
Converted amounts (≈) assume the structure as drawn. The source made the active and inactive calls. No cut-off for these calls is given here.

Legend:
[1] = test system: OCI-LY19; experiment: Growth inhibition of human OCI-LY19 cells at 10 uM incubated for 3 days by Alamar blue dye based fluorescence assay (reference value: 3%); type: functional; details: OCI-LY19, 72 h, read-out: GI
[2] = molecular target: T1, Interleukin-1 receptor-associated kinase 1 (Homo sapiens, UniProt P51617); experiment: Inhibition of IRAK1 (unknown origin)
Target sequence in this assay (P51617 whole entry): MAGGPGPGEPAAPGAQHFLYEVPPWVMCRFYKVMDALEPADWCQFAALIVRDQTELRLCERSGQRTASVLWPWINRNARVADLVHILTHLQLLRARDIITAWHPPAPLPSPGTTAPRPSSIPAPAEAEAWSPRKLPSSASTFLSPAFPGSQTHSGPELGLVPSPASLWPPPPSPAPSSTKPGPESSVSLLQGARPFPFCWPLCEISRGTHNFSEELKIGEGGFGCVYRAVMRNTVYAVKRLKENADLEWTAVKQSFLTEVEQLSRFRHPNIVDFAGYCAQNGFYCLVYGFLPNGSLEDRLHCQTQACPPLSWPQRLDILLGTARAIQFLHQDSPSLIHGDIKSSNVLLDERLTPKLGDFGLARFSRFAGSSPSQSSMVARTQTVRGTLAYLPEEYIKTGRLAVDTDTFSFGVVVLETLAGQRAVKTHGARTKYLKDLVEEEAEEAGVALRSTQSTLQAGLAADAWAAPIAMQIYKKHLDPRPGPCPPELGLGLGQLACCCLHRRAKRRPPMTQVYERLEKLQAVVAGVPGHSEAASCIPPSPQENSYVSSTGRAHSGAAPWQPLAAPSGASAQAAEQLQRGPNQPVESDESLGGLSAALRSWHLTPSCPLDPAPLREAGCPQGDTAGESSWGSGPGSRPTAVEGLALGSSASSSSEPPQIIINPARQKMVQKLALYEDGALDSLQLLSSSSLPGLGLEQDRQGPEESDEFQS

[3] = Efflux ratio in human Caco2 cells; type: ADME, cell-based; details: Caco-2
[4] = organism: Homo sapiens; experiment: Selectivity index, ratio of IC50 for inhibition of IRAK1 (unknown origin) to IC50 for inhibition of IRAK4 (unknown origin) in presence of 5 mM ATP by enzymatic assay
[5] = Aqueous solubility in pH 7.4 phosphate buffer; type: physicochemical
[6] = test system: OCI-LY19; experiment: Growth inhibition of human OCI-LY19 cells at 0.13 uM incubated for 3 days by Alamar blue dye based fluorescence assay (reference value: 3%); type: functional; details: OCI-LY19, 72 h, read-out: GI
[7] = Intrinsic permeability in human Caco2 cells; type: ADME, cell-based; details: Caco-2
[8] = molecular target: Dual specificity protein kinase CLK3 (Homo sapiens, UniProt P49761); experiment: Inhibition of human recombinant CLK3 expressed in Baculovirus system
[9] = Lipophilicity, logD of the compound at pH 7.4 by shake-flask assay; type: physicochemical; details: buffer
[10] = test system: OCI-LY19; experiment: Growth inhibition of human OCI-LY19 cells at 0.33 uM incubated for 3 days by Alamar blue dye based fluorescence assay (reference value: 3%); type: functional; details: OCI-LY19, 72 h, read-out: GI
[11] = molecular target: T2, Interleukin-1 receptor-associated kinase 4 (Homo sapiens, UniProt Q9NWZ3); experiment: Inhibition of IRAK4 (unknown origin) in presence of 5 mM ATP by enzymatic assay
T2 sequence (Q9NWZ3 whole entry): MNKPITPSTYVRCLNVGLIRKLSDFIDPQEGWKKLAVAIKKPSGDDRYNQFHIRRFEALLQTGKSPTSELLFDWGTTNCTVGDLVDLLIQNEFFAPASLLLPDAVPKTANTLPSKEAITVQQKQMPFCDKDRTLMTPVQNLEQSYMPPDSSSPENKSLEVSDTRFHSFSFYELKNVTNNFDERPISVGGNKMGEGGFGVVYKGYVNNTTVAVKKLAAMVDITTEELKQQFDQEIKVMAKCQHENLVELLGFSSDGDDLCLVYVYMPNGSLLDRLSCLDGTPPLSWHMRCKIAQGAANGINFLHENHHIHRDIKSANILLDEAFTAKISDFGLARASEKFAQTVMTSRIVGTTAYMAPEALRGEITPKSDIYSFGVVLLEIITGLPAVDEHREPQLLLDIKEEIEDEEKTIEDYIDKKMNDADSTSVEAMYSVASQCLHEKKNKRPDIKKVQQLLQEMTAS

[12] = test system: OCI-Ly10; experiment: Antitumor activity against human OCI-LY10 cells xenografted in CB.17 SCID mouse assessed as inhibition of tumor growth at 100 mg/kg, po QD dosed 34 days after tumor cell inoculation; type: functional, organism-based
[13] = Intrinsic clearance in human hepatocytes assessed per million cells; type: ADME, cell-based, Hepatocyte; details: read-out: CLH
[14] = Unbound fraction in rat plasma at 37 degC by equilibrium dialysis; type: ADME, cell-free
[15] = organism: Homo sapiens; experiment: Selectivity index, ratio of IC50 for inhibition of human recombinant CLK1 expressed in Escherichia coli to IC50 for inhibition of IRAK4 (unknown origin) in presence of 5 mM ATP by enzymatic assay
[16] = organism: Homo sapiens; experiment: Selectivity index, ratio of IC50 for inhibition of CDK7 (unknown origin) to IC50 for inhibition of IRAK4 (unknown origin) in presence of 5 mM ATP by enzymatic assay
[17] = Volume of distribution at steady state in Han Wistar rat at 1 mg/kg, iv; type: ADME, organism-based; details: in vivo, read-out: Vdss
[18] = organism: Homo sapiens; experiment: Selectivity index, ratio of IC50 for inhibition of CDK9 (unknown origin) to IC50 for inhibition of IRAK4 (unknown origin) in presence of 5 mM ATP by enzymatic assay
[19] = AUC in SCID mouse at 50 mg/kg, po; type: ADME, organism-based; details: in vivo
[20] = test system: OCI-Ly10; experiment: Growth inhibition of human OCI-LY10 cells at 0.13 uM incubated for 3 days by Alamar blue dye based fluorescence assay (reference value: 3%); type: functional; details: OCI-Ly10, 72 h, read-out: GI
[21] = organism: Homo sapiens; experiment: Selectivity index, ratio of IC50 for inhibition of human recombinant CLK3 expressed in Baculovirus system to IC50 for inhibition of IRAK4 (unknown origin) in presence of 5 mM ATP by enzymatic assay
[22] = molecular target: Dual specificity protein kinase CLK2 (Homo sapiens, UniProt P49760); experiment: Inhibition of human recombinant CLK2 expressed in Baculovirus system
[23] = molecular target: Dual specificity protein kinase CLK4 (Homo sapiens, UniProt Q9HAZ1); experiment: Inhibition of human recombinant CLK4 expressed in Baculovirus system
[24] = molecular target: T3, Interleukin-1 receptor-associated kinase 4 (Homo sapiens) (UniProt Q9NWZ3); experiment: Inhibition of IRAK4 in human OCI-LY10 cells assessed as decrease in pIKBalpha levels at 0.3 uM in presence of 3 nM ibrutinib incubated for 14 hrs by Western blotting analysis relative to control; type: cell-based
T3 sequence (whole entry): T2 sequence (Q9NWZ3 whole entry)

[25] = molecular target: Dual specificity protein kinase CLK1 (Homo sapiens, UniProt P49759); experiment: Inhibition of human recombinant CLK1 expressed in Escherichia coli
[26] = test system: OCI-Ly10; experiment: Growth inhibition of human OCI-LY10 cells at 1.7 uM incubated for 3 days by Alamar blue dye based fluorescence assay (reference value: 3%); type: functional; details: OCI-Ly10, 72 h, read-out: GI
[27] = molecular target: T1, Interleukin-1 receptor-associated kinase 1; experiment: Inhibition of IRAK1 (unknown origin) at 0.1 uM relative to control
Target sequence in this assay (P51617 whole entry, looked up): as the sequence (P51617 whole entry) above

[28] = test system: OCI-LY19; experiment: Growth inhibition of human OCI-LY19 cells at 3.3 uM incubated for 3 days by Alamar blue dye based fluorescence assay (reference value: 3%); type: functional; details: OCI-LY19, 72 h, read-out: GI
[29] = test system: OCI-Ly10; experiment: Antitumor activity against human OCI-LY10 cells xenografted in CB.17 SCID mouse assessed as induction of tumor regression at 100 mg/kg, po QD dosed 34 days after tumor cell inoculation and co-treated with 12 mg/kg, po QD ibrutinib; type: functional, organism-based
[30] = test system: OCI-Ly10; experiment: Growth inhibition of human OCI-LY10 cells at 3.3 uM incubated for 3 days by Alamar blue dye based fluorescence assay (reference value: 3%); type: functional; details: OCI-Ly10, 72 h, read-out: GI
[31] = Unbound fraction in human plasma at 37 degC by equilibrium dialysis; type: ADME, cell-free
[32] = organism: Homo sapiens; experiment: Selectivity index, ratio of IC50 for inhibition of human recombinant CDK8/cyclinC expressed in Baculovirus system to IC50 for inhibition of IRAK4 (unknown origin) in presence of 5 mM ATP by enzymatic assay
[33] = molecular target: T2, Interleukin-1 receptor-associated kinase 4; experiment: Inhibition of IRAK4 (unknown origin) by cell based assay
[34] = molecular target: Cyclin-dependent kinase 9 (Homo sapiens, UniProt P50750); experiment: Inhibition of CDK9 (unknown origin)
[35] = organism: Homo sapiens; experiment: Selectivity index, ratio of IC50 for inhibition of human recombinant CLK4 expressed in Baculovirus system to IC50 for inhibition of IRAK4 (unknown origin) in presence of 5 mM ATP by enzymatic assay
[36] = organism: Homo sapiens; experiment: Selectivity index, ratio of IC50 for inhibition of human recombinant CLK2 expressed in Baculovirus system to IC50 for inhibition of IRAK4 (unknown origin) in presence of 5 mM ATP by enzymatic assay
[37] = test system: OCI-Ly10; experiment: Growth inhibition of human OCI-LY10 cells at 10 uM incubated for 3 days by Alamar blue dye based fluorescence assay (reference value: 3%); type: functional; details: OCI-Ly10, 72 h, read-out: GI
[38] = Plasma clearance in Han Wistar rat at 1 mg/kg, iv; type: ADME, organism-based
[39] = test system: OCI-Ly10; experiment: Growth inhibition of human OCI-LY10 cells at 0.33 uM incubated for 3 days by Alamar blue dye based fluorescence assay (reference value: 3%); type: functional; details: OCI-Ly10, 72 h, read-out: GI
[40] = molecular target: CDK8/Cyclin C (Homo sapiens, UniProt P49336); experiment: Inhibition of human recombinant CDK8/cyclinC expressed in Baculovirus system
[41] = molecular target: T3, Interleukin-1 receptor-associated kinase 4 (Homo sapiens); experiment: Inhibition of IRAK4 (unknown origin) at 0.1 uM relative to control
[42] = molecular target: Cyclin-dependent kinase 7 (Homo sapiens, UniProt P50613); experiment: Inhibition of CDK7 (unknown origin)
[43] = Oral bioavailability in Han Wistar rat at 2 mg/kg; type: ADME, organism-based; details: in vivo
[44] = Unbound fraction in mouse plasma at 37 degC by equilibrium dialysis; type: ADME, cell-free
[45] = test system: OCI-LY19; experiment: Growth inhibition of human OCI-LY19 cells at 1.7 uM incubated for 3 days by Alamar blue dye based fluorescence assay (reference value: 3%); type: functional; details: OCI-LY19, 72 h, read-out: GI
[46] = Intrinsic clearance in rat hepatocytes assessed per million cells; type: ADME, cell-based, Hepatocyte; details: read-out: CLH

Sequence of Dual specificity protein kinase CLK2 (P49760 whole entry): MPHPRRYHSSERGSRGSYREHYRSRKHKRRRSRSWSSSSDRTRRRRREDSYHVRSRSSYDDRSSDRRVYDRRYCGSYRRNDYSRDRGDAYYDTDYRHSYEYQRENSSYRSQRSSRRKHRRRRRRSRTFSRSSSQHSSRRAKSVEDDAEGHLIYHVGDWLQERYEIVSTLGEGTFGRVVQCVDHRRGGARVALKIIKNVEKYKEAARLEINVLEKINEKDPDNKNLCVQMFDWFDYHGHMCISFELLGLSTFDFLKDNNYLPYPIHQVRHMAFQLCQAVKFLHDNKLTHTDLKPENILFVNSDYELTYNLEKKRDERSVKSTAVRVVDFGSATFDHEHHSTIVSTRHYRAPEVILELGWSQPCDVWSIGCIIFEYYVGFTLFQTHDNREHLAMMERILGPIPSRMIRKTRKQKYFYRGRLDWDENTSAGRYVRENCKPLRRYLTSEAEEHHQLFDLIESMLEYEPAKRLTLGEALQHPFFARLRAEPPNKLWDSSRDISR
Sequence of Dual specificity protein kinase CLK3 (P49761 whole entry): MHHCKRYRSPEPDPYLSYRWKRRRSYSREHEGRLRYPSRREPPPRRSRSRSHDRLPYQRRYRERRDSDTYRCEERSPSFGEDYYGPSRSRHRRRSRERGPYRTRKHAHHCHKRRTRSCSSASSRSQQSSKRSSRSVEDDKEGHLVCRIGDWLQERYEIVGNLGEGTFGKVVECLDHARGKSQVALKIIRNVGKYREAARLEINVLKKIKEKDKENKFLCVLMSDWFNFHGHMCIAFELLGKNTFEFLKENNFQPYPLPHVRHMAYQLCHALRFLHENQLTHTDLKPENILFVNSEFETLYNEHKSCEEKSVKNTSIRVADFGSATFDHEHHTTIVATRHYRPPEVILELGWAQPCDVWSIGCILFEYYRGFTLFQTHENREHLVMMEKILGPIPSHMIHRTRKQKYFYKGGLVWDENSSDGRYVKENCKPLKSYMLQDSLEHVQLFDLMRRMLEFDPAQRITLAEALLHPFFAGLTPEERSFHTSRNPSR
Sequence of Dual specificity protein kinase CLK4 (Q9HAZ1 whole entry): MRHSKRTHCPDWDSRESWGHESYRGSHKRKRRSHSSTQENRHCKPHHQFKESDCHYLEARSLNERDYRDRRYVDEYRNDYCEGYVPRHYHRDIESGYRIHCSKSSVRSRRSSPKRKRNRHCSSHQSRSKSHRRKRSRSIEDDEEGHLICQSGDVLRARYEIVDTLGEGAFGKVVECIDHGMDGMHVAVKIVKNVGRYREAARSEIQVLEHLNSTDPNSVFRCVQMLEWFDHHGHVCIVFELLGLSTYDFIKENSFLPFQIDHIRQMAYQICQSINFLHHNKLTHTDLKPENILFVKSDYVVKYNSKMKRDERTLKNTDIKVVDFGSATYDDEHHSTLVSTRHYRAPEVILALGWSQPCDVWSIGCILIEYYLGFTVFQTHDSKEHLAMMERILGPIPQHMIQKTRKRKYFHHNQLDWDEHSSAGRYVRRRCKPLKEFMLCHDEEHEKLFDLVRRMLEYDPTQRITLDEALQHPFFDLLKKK
Sequence of Dual specificity protein kinase CLK1 (P49759 whole entry): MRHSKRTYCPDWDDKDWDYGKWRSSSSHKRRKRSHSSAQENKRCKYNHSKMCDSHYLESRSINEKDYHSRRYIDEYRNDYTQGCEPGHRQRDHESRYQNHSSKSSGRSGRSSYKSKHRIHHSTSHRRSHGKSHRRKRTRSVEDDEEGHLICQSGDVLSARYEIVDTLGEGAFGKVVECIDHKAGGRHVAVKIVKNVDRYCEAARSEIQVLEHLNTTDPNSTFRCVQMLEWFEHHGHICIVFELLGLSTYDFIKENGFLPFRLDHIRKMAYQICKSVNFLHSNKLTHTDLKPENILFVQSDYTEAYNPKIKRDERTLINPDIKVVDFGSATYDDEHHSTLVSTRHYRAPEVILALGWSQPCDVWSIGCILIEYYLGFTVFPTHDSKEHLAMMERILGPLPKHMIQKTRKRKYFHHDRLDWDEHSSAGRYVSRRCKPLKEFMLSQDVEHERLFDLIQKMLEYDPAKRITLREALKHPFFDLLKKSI
Sequence of CDK8/Cyclin C (P49336 whole entry): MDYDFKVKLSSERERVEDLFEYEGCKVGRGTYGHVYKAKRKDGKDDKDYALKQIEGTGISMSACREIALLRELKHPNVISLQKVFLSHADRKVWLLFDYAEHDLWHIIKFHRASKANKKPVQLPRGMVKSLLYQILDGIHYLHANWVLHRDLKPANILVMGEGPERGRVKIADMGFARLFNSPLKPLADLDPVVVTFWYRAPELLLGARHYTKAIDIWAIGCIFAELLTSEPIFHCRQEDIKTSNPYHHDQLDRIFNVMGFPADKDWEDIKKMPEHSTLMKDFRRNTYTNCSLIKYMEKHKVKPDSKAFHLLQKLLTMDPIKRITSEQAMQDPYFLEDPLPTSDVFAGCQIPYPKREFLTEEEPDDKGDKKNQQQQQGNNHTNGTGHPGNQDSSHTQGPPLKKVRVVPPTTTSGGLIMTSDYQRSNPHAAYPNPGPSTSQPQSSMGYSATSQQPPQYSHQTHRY
Sequence of CDK8/Cyclin C (P24863 whole entry, further chain): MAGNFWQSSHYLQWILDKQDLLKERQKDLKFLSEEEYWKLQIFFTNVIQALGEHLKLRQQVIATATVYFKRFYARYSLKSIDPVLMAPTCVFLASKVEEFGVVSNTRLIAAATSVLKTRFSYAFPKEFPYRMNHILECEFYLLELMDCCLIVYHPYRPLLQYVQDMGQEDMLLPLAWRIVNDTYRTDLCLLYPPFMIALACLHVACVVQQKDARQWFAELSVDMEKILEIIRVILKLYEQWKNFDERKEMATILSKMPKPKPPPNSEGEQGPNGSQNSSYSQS
Sequence of Cyclin-dependent kinase 7 (P50613 whole entry): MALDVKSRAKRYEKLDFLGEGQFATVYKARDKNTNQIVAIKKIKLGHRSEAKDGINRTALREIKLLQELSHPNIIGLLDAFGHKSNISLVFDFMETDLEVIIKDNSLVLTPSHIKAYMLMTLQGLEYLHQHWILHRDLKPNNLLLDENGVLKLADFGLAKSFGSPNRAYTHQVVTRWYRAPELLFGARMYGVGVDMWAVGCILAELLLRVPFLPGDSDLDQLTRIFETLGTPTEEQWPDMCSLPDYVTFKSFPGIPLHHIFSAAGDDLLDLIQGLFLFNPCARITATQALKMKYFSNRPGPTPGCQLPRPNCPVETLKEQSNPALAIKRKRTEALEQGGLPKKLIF
Sequence of Cyclin-dependent kinase 9 (P50750 whole entry): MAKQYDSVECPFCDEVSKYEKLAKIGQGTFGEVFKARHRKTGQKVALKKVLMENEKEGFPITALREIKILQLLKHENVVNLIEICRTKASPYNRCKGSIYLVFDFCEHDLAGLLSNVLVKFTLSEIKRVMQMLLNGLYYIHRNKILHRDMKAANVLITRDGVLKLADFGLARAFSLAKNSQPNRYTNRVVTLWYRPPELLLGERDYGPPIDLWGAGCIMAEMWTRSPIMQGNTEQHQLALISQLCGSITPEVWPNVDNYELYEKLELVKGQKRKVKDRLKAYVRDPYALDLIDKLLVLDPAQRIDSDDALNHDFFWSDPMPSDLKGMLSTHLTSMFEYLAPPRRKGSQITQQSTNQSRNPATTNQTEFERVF

Compound: COC(=O)N1CCN([C@H]2CC[C@H](Nc3nc(Nc4cnn(C)c4)nc4ccc(CC#N)nc34)CC2)CC1
- inhibition of growth at 10 µM [1]: 88%
- IC50 [2]: 27 nM
- efflux ratio [3]: 24
- Ratio IC50 [4]: 6.8
- solubility [5]: 29 µM (≈ 14.6 µg/mL)
- inhibition of growth at 0.13 µM [6]: 6%
- Papp [7]: 9.3 ×10⁻⁶ cm/s
- IC50 [8]: > 10000 nM
- logD [9]: 2.3
- inhibition of growth at 0.33 µM [10]: 10%
- IC50 [11]: 4 nM
- TGI [12]: Active
- hepatocyte CLint [13]: 10 µL/min/1e6 cells
- fraction unbound [14]: 0.23
- Ratio IC50 [15]: 775
- Ratio IC50 [16]: 4250
- Vd [17]: 4.5 L/kg
- Ratio IC50 [18]: 3250
- AUC [19]: 23 µM·h
- inhibition of growth at 0.13 µM [20]: 8%
- Ratio IC50 [21]: > 2500
- IC50 [22]: 1400 nM
- IC50 [23]: 1000 nM
- inhibition [24]: 100%
- IC50 [25]: 3100 nM
- inhibition of growth at 1.7 µM [26]: 25%
- inhibition [27]: 70%
- inhibition of growth at 3.3 µM [28]: 50%
- Activity [29]: Active
- inhibition of growth at 3.3 µM [30]: 44%
- fraction unbound [31]: 0.3
- Ratio IC50 [32]: > 2500
- IC50 [33]: 46 nM
- IC50 [34]: 13000 nM
- Ratio IC50 [35]: 250
- Ratio IC50 [36]: 350
- inhibition of growth at 10 µM [37]: 82%
- clearance [38]: 25 mL/min/kg
- inhibition of growth at 0.33 µM [39]: 12%
- IC50 [40]: > 10000 nM
- inhibition [41]: 104%
- IC50 [42]: 17000 nM
- bioavailability [43]: 10%
- fraction unbound [44]: 0.44
- inhibition of growth at 1.7 µM [45]: 31%
- hepatocyte CLint [46]: 10 µL/min/1e6 cells
